Measurements taken from patent US12522601B2, “1,3,4-oxadiazole derivative compounds as histone deacetylase 6 inhibitor, and the pharmaceutical composition comprising the same” (CHONG KUN DANG PHARMACEUTICAL CORP., priority 2020, dated 2026).

Experiments:
human recombinant HDAC1 = biological target: T1, human recombinant HDAC1 (Homo sapiens, UniProt Q13547); experiment: In vitro HDAC enzyme activity inhibition assay, HDAC1 (HDAC Fluorimetric Drug Discovery Kit); assay type: biochemical; settings: human recombinant HDAC1, Fluor de Lys-SIRT1 substrate 10 μM, 30° C. for 60 minutes
T1 construct: purchased Enzo Life Sciences, Inc. BML-SE456
T1 sequence (Q13547 whole entry): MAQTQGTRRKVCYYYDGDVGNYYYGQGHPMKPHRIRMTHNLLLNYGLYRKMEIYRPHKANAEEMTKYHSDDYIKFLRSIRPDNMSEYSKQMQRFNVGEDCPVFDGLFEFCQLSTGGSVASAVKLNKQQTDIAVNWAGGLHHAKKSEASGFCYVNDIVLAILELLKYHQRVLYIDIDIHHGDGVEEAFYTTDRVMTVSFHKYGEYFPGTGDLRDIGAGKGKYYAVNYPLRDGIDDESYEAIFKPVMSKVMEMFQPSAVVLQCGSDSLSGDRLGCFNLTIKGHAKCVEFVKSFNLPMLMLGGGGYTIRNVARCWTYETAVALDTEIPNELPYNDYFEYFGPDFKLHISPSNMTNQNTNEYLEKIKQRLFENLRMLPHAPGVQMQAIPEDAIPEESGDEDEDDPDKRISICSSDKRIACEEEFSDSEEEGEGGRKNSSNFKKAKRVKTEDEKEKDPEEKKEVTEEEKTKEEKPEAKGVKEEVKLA
Summary of the method: (§1)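 Fluorimetric deacetylase kit; 0.3 μg human recombinant enzyme with 10 μM Fluor de Lys-SIRT1 substrate, 60 min at 30° C, then developer 30 min. Fluorescence read at Ex 360/Em 460; IC50 from 5-fold compound dilutions. HDAC1 and HDAC6 run by the same protocol.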

human recombinant HDAC6 = biological target: T2, human recombinant HDAC6 (Homo sapiens, UniProt Q9UBN7); experiment: In vitro HDAC enzyme activity inhibition assay, HDAC6 (HDAC Fluorimetric Drug Discovery Kit); assay type: biochemical; settings: for HDAC6 Selectivity (fold): HDAC6 versus HDAC1; for IC50: human recombinant HDAC6, same protocol as the HDAC1 test
T2 construct: purchased Calbiochem Inc. 382180
T2 sequence (Q9UBN7 1-1215): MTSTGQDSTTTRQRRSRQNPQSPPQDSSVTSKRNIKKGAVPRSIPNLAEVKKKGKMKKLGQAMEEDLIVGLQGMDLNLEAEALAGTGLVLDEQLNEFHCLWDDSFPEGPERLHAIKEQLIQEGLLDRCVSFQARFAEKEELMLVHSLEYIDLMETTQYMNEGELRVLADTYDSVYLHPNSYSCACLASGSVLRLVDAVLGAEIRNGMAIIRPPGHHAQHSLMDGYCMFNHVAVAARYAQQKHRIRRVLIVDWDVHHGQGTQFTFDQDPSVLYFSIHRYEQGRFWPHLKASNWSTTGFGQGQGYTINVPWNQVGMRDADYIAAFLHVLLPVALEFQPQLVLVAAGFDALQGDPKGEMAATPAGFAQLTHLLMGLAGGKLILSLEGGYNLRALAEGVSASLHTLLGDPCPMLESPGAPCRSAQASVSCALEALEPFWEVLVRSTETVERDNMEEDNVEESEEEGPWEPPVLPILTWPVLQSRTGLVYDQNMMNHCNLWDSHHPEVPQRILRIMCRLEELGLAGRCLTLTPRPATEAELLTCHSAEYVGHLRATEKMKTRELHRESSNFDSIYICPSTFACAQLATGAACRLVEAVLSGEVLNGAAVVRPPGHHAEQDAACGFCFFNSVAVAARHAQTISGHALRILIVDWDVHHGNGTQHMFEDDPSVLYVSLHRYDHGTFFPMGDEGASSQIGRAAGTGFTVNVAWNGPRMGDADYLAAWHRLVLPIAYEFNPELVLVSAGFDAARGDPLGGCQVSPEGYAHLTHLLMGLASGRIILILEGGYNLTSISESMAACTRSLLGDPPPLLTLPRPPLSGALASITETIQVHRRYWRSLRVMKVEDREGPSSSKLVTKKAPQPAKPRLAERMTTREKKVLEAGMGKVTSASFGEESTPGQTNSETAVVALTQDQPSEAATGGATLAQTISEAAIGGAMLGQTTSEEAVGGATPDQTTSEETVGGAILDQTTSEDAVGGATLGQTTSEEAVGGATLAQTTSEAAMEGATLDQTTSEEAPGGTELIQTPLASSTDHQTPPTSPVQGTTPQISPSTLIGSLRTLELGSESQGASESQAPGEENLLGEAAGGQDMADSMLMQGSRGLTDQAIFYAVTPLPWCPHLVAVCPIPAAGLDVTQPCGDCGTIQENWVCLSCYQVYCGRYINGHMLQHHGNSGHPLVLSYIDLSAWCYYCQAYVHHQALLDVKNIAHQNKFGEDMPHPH
Summary of the method: as §1

| Compound | IC50 (human recombinant HDAC1) [µM] | HDAC6 Selectivity (fold) (human recombinant HDAC6) | IC50 (human recombinant HDAC6) [nM] |
| --- | --- | --- | --- |
| O=C(C1CCN(C2CCCCC2)CC1)N(Cc1cn2ccc(-c3nnc(C(F)F)o3)cc2n1)c1ccccc1 [Compound 4119, 1-cyclohexyl-N-((7-(5-(difluoromethyl)-1,3,4-oxadiazol-2-yl)imidazo[1,2-a]pyridin-2-yl)methyl)-N-phenylpiperidine-4-carboxamide] | > 50 | 124 | 402 |
| O=C(C1CCN(C2CCOCC2)CC1)N(Cc1cn2ccc(-c3nnc(C(F)F)o3)cc2n1)c1ccccc1 [Compound 4120, N-((7-(5-(difluoromethyl)-1,3,4-oxadiazol-2-yl)imidazo[1,2-a]pyridin-2-yl)methyl)-N-phenyl-1-(tetrahydro-2H-pyran-4-yl)piperidine-4-carboxamide] | > 50 | 98 | 509 |
| O=C(C1CCN(C2CCC(F)(F)CC2)CC1)N(Cc1cn2ccc(-c3nnc(C(F)F)o3)cc2n1)c1ccccc1 [Compound 4121, 1-(4,4-difluorocyclohexyl)-N-((7-(5-(difluoromethyl)-1,3,4-oxadiazol-2-yl)imidazo[1,2-a]pyridin-2-yl)methyl)-N-phenylpiperidine-4-carboxamide] | > 50 | 122 | 411 |
| CC(=O)N1CCC(C(=O)N(Cc2cn3ccc(-c4nnc(C(F)F)o4)cc3n2)c2ccccc2)CC1 [Compound 4122, 1-acetyl-N-((7-(5-(difluoromethyl)-1,3,4-oxadiazol-2-yl)imidazo[1,2-a]pyridin-2-yl)methyl)-N-phenylpiperidine-4-carboxamide] | > 50 | 142 | 353 |
| CCC(=O)N1CCC(C(=O)N(Cc2cn3ccc(-c4nnc(C(F)F)o4)cc3n2)c2ccccc2)CC1 [Compound 4123, N-((7-(5-(difluoromethyl)-1,3,4-oxadiazol-2-yl)imidazo[1,2-a]pyridin-2-yl)methyl)-N-phenyl-1-propionylpiperidine-4-carboxamide] | > 50 | 163 | 307 |
| O=C(CO)N1CCC(C(=O)N(Cc2cn3ccc(-c4nnc(C(F)F)o4)cc3n2)c2ccccc2)CC1 [Compound 4124, N-((7-(5-(difluoromethyl)-1,3,4-oxadiazol-2-yl)imidazo[1,2-a]pyridin-2-yl)methyl)-1-(2-hydroxyacetyl)-N-phenylpiperidine-4-carboxamide] | > 50 | 147 | 341 |
| O=C(C1CCC1)N1CCC(C(=O)N(Cc2cn3ccc(-c4nnc(C(F)F)o4)cc3n2)c2ccccc2)CC1 [Compound 4125, 1-(cyclobutanecarbonyl)-N-((7-(5-(difluoromethyl)-1,3,4-oxadiazol-2-yl)imidazo[1,2-a]pyridine-2-yl)methyl)-N-phenylpiperidine-4-carboxamide] | > 50 | 152 | 329 |
| O=C(C1COC1)N1CCC(C(=O)N(Cc2cn3ccc(-c4nnc(C(F)F)o4)cc3n2)c2ccccc2)CC1 [Compound 4126, N-((7-(5-(difluoromethyl)-1,3,4-oxadiazol-2-yl)imidazo[1,2-a]pyridin-2-yl)methyl)-1-(oxetan-3-carbonyl)-N-phenylpiperidine-4-carboxamide] | > 50 | 124 | 404 |
| O=C(C1CCN(C(=O)C(F)(F)F)CC1)N(Cc1cn2ccc(-c3nnc(C(F)F)o3)cc2n1)c1ccccc1 [Compound 4127, N-((7-(5-(difluoromethyl)-1,3,4-oxadiazol-2-yl)imidazo[1,2-a]pyridin-2-yl)methyl)-N-phenyl-1-(2,2,2-trifluoroacetyl)piperidine-4-carboxamide] | > 50 | 82 | 612 |
| CS(=O)(=O)N1CCC(C(=O)N(Cc2cn3ccc(-c4nnc(C(F)F)o4)cc3n2)c2ccccc2)CC1 [Compound 4128, N-((7-(5-(difluoromethyl)-1,3,4-oxadiazol-2-yl)imidazo[1,2-a]pyridin-2-yl)methyl)-1-(methylsulfonyl)-N-phenylpiperidine-4-carboxamide] | > 50 | 159 | 315 |
| COC(=O)N1CCC(C(=O)N(Cc2cn3ccc(-c4nnc(C(F)F)o4)cc3n2)c2ccccc2)CC1 [Compound 4129, methyl 4-(((7-(5-(difluoromethyl)-1,3,4-oxadiazol-2-yl)imidazo[1,2-a]pyridin-2-yl)methyl)(phenyl)carbamoyl)piperidine-1-carboxylate] | > 50 | 125 | 401 |
| CN(C)C(=O)N1CCC(C(=O)N(Cc2cn3ccc(-c4nnc(C(F)F)o4)cc3n2)c2ccccc2)CC1 [Compound 4130, N4-((7-(5-(difluoromethyl)-1,3,4-oxadiazol-2-yl)imidazo[1,2-a]pyridin-2-yl)methyl)-N1,N1-dimethyl-N4-phenylpiperidine-1,4-dicarboxamide] | > 50 | 133 | 375 |
| O=C(C1CCN(c2ccccn2)CC1)N(Cc1cn2ccc(-c3nnc(C(F)F)o3)cc2n1)c1ccccc1 [Compound 4131, N-((7-(5-(difluoromethyl)-1,3,4-oxadiazol-2-yl)imidazo[1,2-a]pyridin-2-yl)methyl)-N-phenyl-1-(pyridin-2-yl)piperidine-4-carboxamide] | > 50 | 91 | 547 |
| O=C(C1CCN(c2ncccn2)CC1)N(Cc1cn2ccc(-c3nnc(C(F)F)o3)cc2n1)c1ccccc1 [Compound 4132, N-((7-(5-(difluoromethyl)-1,3,4-oxadiazol-2-yl)imidazo[1,2-a]pyridin-2-yl)methyl)-N-phenyl-1-(pyrimidin-2-yl)piperidine-4-carboxamide] | > 50 | 76 | 655 |
| CN1CCC(C(=O)N(Cc2cn3ccc(-c4nnc(C(F)F)o4)cc3n2)c2cccc(F)c2)CC1 [Compound 4137, N-((7-(5-(difluoromethyl)-1,3,4-oxadiazol-2-yl)imidazo[1,2-a]pyridin-2-yl)methyl)-N-(3-fluorophenyl)-1-methylpiperidine-4-carboxamide] | > 50 | 283 | 177 |
| CCN1CCC(C(=O)N(Cc2cn3ccc(-c4nnc(C(F)F)o4)cc3n2)c2cccc(F)c2)CC1 [Compound 4138, N-((7-(5-(difluoromethyl)-1,3,4-oxadiazol-2-yl)imidazo[1,2-a]pyridin-2-yl)methyl)-1-ethyl-N-(3-fluorophenyl)piperidine-4-carboxamide] | > 50 | 292 | 171 |
| CC(C)N1CCC(C(=O)N(Cc2cn3ccc(-c4nnc(C(F)F)o4)cc3n2)c2cccc(F)c2)CC1 [Compound 4139, N-((7-(5-(difluoromethyl)-1,3,4-oxadiazol-2-yl)imidazo[1,2-a]pyridin-2-yl)methyl)-N-(3-fluorophenyl)-1-isopropylpiperidine-4-carboxamide] | > 50 | 403 | 124 |
| CC(CO)N1CCC(C(=O)N(Cc2cn3ccc(-c4nnc(C(F)F)o4)cc3n2)c2cccc(F)c2)CC1 (stereo not drawn) [Compound 4140, N-((7-(5-(difluoromethyl)-1,3,4-oxadiazol-2-yl)imidazo[1,2-a]pyridin-2-yl)methyl)-N-(3-fluorophenyl)-1-(1-hydroxypropan-2-yl)piperidine-4-carboxamide] | > 50 | 246 | 203 |
| O=C(C1CCN(C2CCC2)CC1)N(Cc1cn2ccc(-c3nnc(C(F)F)o3)cc2n1)c1cccc(F)c1 [Compound 4141, 1-cyclobutyl-N-((7-(5-(difluoromethyl)-1,3,4-oxadiazol-2-yl)imidazo[1,2-a]pyridin-2-yl)methyl)-N-(3-fluorophenyl)piperidine-4-carboxamide] | > 50 | 204 | 245 |
